Assay results: ChEMBL document CHEMBL3627608, “Crystal structures of human RIP2 kinase catalytic domain complexed with ATP-competitive inhibitors: Foundations for understanding inhibitor selectivity” (Bioorg Med Chem, 2015)

Experiments:
[1] = target: T1, Aurora kinase C (Homo sapiens) (UniProt Q9UQB9); assay: Inhibition of Aurora C (unknown origin) at 10 uM after 120 mins P33 radiolabeled kinase activity assay
T1 sequence (whole entry): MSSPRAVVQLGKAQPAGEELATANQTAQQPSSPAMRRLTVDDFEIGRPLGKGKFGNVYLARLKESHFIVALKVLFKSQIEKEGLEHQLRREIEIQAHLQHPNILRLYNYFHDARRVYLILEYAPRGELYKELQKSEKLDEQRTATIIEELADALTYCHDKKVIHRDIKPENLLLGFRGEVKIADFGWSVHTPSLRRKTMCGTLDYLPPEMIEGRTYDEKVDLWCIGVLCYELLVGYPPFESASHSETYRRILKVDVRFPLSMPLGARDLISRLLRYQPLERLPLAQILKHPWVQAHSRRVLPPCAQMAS

[2] = target: Protein-tyrosine kinase 2-beta (Homo sapiens) (UniProt Q14289); assay: Inhibition of PYK2 (unknown origin) at 10 uM after 120 mins P33 radiolabeled kinase activity assay
Sequence of Protein-tyrosine kinase 2-beta (Homo sapiens) (Q14289 whole entry, looked up): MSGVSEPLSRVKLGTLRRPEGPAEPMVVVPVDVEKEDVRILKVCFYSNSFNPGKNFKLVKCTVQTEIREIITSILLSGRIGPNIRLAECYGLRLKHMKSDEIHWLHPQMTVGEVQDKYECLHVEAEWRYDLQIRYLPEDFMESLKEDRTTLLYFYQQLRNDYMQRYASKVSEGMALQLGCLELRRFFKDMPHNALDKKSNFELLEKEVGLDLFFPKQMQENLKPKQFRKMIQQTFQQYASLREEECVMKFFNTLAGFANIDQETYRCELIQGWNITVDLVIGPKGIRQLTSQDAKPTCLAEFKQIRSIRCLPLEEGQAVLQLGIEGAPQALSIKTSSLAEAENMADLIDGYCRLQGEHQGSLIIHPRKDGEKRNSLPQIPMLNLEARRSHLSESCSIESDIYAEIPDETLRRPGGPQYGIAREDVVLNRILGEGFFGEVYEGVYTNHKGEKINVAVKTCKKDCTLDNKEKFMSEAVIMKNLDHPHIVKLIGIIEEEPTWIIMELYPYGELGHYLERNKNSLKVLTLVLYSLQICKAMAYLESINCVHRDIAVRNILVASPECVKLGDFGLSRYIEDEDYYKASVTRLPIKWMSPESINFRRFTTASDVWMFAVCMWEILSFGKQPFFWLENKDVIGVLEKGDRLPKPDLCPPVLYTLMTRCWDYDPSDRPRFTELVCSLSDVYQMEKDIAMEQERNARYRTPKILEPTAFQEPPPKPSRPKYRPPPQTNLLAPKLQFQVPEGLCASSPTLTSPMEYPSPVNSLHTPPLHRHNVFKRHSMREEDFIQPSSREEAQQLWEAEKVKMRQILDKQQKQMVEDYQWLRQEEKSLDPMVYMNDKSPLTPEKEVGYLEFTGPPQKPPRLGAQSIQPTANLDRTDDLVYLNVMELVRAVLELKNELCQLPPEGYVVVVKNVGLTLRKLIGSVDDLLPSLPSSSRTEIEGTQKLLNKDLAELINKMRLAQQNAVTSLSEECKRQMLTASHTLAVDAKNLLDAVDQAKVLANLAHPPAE

[3] = target: Dual specificity protein kinase CLK4 (Homo sapiens) (UniProt Q9HAZ1); assay: Inhibition of CLK4 (unknown origin) at 10 uM after 120 mins P33 radiolabeled kinase activity assay
Sequence of Dual specificity protein kinase CLK4 (Homo sapiens) (Q9HAZ1 whole entry, looked up): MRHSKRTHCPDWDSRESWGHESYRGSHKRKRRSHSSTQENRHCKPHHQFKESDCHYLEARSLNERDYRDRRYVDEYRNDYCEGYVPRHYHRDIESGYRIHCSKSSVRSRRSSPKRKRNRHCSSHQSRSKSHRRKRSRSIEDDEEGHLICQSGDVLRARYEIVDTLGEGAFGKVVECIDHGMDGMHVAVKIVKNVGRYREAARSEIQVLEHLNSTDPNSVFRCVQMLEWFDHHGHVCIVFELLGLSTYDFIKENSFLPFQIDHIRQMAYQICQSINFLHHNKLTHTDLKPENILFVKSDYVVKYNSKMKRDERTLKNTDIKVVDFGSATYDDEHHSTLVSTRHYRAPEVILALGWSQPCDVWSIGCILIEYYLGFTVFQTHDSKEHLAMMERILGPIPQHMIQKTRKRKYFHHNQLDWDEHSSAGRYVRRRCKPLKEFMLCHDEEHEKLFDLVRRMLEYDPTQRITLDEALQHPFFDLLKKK

[4] = target: MAP/microtubule affinity-regulating kinase 3 (Homo sapiens) (UniProt P27448); assay: Inhibition of MARK3 (unknown origin) at 10 uM after 120 mins P33 radiolabeled kinase activity assay
Sequence of MAP/microtubule affinity-regulating kinase 3 (Homo sapiens) (P27448 whole entry, looked up): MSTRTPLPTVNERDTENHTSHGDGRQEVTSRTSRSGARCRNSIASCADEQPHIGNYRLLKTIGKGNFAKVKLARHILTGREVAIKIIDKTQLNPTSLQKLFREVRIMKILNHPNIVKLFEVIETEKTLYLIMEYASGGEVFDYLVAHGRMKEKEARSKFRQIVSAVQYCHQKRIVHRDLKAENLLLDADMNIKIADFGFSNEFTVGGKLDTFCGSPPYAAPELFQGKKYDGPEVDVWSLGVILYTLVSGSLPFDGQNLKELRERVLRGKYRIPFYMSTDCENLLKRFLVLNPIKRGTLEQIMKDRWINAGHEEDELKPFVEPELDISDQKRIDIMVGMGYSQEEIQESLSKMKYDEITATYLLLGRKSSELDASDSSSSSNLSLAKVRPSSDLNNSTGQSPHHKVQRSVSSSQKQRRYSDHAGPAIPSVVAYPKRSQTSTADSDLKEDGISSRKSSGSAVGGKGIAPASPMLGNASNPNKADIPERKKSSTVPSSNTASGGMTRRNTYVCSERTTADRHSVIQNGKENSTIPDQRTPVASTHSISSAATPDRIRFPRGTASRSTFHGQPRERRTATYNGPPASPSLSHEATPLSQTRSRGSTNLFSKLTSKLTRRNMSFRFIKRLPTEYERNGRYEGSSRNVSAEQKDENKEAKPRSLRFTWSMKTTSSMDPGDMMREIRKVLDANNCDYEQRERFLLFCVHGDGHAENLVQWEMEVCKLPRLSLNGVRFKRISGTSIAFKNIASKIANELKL

[5] = target: T2, Serine/threonine-protein kinase D1 (Homo sapiens) (UniProt Q15139); assay: Inhibition of PKCmu (unknown origin) at 10 uM after 120 mins P33 radiolabeled kinase activity assay
T2 sequence (whole entry): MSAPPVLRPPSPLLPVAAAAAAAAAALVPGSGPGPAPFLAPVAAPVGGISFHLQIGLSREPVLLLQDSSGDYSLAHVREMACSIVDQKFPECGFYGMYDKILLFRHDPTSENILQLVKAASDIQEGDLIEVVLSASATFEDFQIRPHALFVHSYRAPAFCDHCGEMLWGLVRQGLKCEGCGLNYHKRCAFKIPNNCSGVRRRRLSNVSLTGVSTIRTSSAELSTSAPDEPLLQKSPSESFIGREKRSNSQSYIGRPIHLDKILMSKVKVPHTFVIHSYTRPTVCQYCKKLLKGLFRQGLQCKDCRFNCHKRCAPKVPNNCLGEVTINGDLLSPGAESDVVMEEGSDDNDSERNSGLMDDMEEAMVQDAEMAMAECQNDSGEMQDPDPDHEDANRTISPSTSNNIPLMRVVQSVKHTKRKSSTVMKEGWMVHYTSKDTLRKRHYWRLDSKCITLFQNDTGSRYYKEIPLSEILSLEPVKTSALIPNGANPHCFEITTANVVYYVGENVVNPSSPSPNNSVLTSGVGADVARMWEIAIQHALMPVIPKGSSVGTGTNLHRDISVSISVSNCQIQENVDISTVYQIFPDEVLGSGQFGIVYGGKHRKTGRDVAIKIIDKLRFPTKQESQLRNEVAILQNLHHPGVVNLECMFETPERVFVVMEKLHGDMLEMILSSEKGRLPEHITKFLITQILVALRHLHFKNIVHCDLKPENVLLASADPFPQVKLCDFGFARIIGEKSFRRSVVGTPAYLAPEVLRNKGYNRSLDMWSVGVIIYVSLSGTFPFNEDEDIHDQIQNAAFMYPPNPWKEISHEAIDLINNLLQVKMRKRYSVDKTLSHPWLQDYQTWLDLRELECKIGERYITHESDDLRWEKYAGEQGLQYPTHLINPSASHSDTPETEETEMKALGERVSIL

[6] = target: T3, Myotonin-protein kinase (Homo sapiens) (UniProt Q09013); assay: Inhibition of DMPK (unknown origin) at 10 uM after 120 mins P33 radiolabeled kinase activity assay
T3 sequence (whole entry): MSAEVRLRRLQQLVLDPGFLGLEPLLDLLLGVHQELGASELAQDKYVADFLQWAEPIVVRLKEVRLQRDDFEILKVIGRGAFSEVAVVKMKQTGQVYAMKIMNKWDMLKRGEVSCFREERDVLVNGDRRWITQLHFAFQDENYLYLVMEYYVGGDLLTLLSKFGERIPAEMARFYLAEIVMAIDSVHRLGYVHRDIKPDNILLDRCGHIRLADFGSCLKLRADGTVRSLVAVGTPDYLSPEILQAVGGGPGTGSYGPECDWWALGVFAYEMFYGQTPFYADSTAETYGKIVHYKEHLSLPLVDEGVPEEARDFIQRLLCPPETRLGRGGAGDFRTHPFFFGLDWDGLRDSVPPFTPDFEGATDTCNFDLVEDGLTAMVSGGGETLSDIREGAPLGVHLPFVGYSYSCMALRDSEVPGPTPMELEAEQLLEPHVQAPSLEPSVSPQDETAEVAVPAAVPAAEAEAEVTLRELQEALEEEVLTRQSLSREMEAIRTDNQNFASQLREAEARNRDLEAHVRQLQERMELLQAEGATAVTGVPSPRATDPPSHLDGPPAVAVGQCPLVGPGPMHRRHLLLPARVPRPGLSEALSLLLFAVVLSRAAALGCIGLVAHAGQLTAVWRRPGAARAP

[7] = target: RAC-alpha serine/threonine-protein kinase (Homo sapiens) (UniProt P31749); assay: Inhibition of AKT1 (unknown origin) at 10 uM after 120 mins P33 radiolabeled kinase activity assay
Sequence of RAC-alpha serine/threonine-protein kinase (Homo sapiens) (P31749 whole entry): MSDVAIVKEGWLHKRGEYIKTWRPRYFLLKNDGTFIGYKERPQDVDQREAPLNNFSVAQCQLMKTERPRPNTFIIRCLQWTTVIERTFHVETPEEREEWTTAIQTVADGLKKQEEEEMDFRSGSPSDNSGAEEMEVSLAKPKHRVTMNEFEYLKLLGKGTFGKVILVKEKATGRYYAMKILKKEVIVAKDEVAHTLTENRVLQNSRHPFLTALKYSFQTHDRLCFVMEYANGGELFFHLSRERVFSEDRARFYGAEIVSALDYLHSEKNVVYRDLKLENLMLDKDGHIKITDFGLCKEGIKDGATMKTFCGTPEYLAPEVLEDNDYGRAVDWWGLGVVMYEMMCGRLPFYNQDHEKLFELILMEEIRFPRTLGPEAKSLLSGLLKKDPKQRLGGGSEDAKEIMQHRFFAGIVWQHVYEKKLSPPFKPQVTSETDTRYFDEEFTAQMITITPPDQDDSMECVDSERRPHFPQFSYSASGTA

[8] = target: Dual specificity testis-specific protein kinase 1 (Homo sapiens) (UniProt Q15569); assay: Inhibition of TESK1 (unknown origin) at 10 uM after 120 mins P33 radiolabeled kinase activity assay
Sequence of Dual specificity testis-specific protein kinase 1 (Homo sapiens) (Q15569 whole entry, looked up): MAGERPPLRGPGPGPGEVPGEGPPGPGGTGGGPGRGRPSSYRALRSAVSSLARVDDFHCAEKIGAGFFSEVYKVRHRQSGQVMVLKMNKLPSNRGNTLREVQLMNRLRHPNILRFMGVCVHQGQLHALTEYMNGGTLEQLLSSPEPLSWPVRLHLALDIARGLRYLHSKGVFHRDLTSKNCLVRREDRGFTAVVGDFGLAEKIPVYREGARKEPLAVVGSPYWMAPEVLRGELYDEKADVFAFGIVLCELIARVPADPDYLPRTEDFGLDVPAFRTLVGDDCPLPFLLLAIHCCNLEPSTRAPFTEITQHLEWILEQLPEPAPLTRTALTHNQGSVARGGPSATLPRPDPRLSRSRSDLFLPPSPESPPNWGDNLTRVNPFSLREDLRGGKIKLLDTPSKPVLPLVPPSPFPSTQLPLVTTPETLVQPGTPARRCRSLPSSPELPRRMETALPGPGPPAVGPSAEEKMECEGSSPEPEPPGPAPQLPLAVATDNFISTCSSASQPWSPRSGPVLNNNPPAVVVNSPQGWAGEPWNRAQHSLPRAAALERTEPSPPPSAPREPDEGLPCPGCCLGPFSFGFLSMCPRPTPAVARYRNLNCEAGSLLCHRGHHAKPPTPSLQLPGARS

[9] = target: Dual specificity protein kinase CLK3 (Homo sapiens) (UniProt P49761); assay: Inhibition of CLK3 (unknown origin) at 10 uM after 120 mins P33 radiolabeled kinase activity assay
Sequence of Dual specificity protein kinase CLK3 (Homo sapiens) (P49761 whole entry, looked up): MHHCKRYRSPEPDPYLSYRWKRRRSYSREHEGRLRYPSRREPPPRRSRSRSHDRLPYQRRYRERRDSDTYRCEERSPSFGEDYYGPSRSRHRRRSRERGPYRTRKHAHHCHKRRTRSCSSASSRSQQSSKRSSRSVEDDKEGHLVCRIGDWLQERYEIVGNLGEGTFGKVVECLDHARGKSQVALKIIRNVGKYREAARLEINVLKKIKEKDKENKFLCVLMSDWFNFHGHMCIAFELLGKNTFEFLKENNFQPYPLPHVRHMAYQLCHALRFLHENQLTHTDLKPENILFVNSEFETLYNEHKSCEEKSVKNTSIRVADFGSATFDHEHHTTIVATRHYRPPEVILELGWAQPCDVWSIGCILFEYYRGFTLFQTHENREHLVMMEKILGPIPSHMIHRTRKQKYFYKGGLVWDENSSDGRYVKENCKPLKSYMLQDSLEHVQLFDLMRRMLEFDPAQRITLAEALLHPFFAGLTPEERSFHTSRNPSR

[10] = target: Cyclin-dependent kinase 5/CDK5 activator 1 (Homo sapiens) (UniProt Q00535+Q15078); assay: Inhibition of CDK5/p25 (unknown origin) at 10 uM after 120 mins P33 radiolabeled kinase activity assay; format: protein-complex assay
Sequence of Cyclin-dependent kinase 5/CDK5 activator 1 (Homo sapiens) (Q00535 whole entry): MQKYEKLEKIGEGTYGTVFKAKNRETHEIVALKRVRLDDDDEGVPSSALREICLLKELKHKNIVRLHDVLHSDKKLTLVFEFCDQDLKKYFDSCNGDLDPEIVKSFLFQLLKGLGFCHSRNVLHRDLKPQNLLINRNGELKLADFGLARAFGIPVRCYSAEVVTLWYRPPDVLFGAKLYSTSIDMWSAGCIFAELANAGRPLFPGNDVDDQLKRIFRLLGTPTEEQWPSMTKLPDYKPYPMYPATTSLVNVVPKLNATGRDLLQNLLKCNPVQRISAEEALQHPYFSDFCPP
Sequence of Cyclin-dependent kinase 5/CDK5 activator 1 (Homo sapiens) (Q15078 99-307 partner limits assumed): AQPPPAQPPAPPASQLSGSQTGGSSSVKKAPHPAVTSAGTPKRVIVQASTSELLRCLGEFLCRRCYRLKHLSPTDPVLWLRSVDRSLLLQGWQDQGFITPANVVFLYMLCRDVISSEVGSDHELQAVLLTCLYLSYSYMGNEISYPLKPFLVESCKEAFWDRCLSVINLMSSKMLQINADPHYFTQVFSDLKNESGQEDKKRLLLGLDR

inhibition [1] [%] | inhibition [2] [%] | inhibition [3] [%] | inhibition [4] [%] | inhibition [5] [%] | inhibition [6] [%] | inhibition [7] [%] | inhibition [8] [%] | inhibition [9] [%] | inhibition [10] [%] | SMILES
11 | 23.7 | 36.7 | 4.8 | 100 | -2.69 | 3.36 | 97 | 36.7 | 92.6 | CS(=O)(=O)c1cccc(Nc2nccc(-c3sc(N4CCOCC4)nc3-c3cccc(NS(=O)(=O)c4c(F)cccc4F)c3)n2)c1
3.77 | 7.67 | 41.3 | -3.77 | 12.1 | -6.45 | 4.96 | 4.86 | 5.68 | 1.93 | COCCNC(=O)c1ccc2c(c1)nc(-c1cnc(-c3ccc(Cl)cc3)[nH]1)n2CCOC
15.8 | 16.5 | 36.5 | -1.36 | 19.5 | -2.09 | 4.64 | 20 | 9.12 | 49.4 | CC(C)(C)c1cc(NC(=O)Nc2ccc(Oc3ccncc3)cc2)no1
